Reference: patent US9987259B2 (priority 2011, dated 2018)
pEC50: −log10 of the molar value. Read-outs that look alike come from different tables or passages of the source.

Target: human α7 nAChR (Homo sapiens (Human), UniProt P36544)
Experiment: cell-based
[1] = HEK293T/17 cells transfected with human α7 nAChR and RIC3, with PNU-120596, fluorescence relative to 1 μM epibatidine, read-out: EC50 of human α7 nAChR

human α7 nAChR, sequence (P36544 23-502 limits assumed): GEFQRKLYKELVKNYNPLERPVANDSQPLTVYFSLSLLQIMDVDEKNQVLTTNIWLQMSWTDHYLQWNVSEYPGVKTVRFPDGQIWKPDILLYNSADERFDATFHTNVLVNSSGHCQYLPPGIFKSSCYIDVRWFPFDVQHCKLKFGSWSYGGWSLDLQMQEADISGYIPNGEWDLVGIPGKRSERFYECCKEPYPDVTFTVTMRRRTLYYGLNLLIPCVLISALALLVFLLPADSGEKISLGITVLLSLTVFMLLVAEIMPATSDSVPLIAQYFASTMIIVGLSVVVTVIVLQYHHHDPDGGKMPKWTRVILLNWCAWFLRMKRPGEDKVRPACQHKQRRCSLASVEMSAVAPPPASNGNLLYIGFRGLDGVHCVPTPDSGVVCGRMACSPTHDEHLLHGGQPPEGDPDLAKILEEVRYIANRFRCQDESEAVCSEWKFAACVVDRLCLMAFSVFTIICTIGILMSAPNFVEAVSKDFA

Row | SMILES | pEC50 | pEC50 [1]
1 | O=C(NC1CN2CCC1CC2)c1ccc(=O)n(-c2nccs2)c1 (centres unmarked) [Example 1, N-(1-azabicyclo[2.2.2]octan-3-yl)-6-oxo-1-(2-thiazolyl)-3-pyridinecarboxamide] | 6.30 to 7.00 | 
2 | O=C(N[C@H]1CN2CCC1CC2)c1ccc(=O)n(-c2nccs2)c1 [Example 2, N-[(3R)-1-azabicyclo[2.2.2]octan-3-yl)-6-oxo-1-(2-thiazolyl)-3-pyridinecarboxamide] | 6.30 to 7.00 | 
3 | O=C(N[C@@H]1CN2CCC1CC2)c1ccc(=O)n(-c2nccs2)c1 [Example 3, N-[(3S)-1-azabicyclo[2.2.2]octan-3-yl)-6-oxo-1-(2-thiazolyl)-3-pyridinecarboxamide] | 6.30 to 7.00 | 
4 | O=C(NC1CN2CCC1CC2)c1ccc(=O)n(-c2ccc(Cl)cn2)c1 (centres unmarked) [Example 6, N-(1-azabicyclo[2.2.2]octan-3-yl)-1-(5-chloro-2-pyridinyl)-6-oxo-3-pyridinecarboxamide] |  | < 6.00
5 | O=C(NC1CN2CCC1CC2)c1ccc(=O)n(-c2ccc(-c3ccccc3)cn2)c1 (centres unmarked) [Example 7, N-(1-azabicyclo[2.2.2]octan-3-yl)-6-oxo-1-(5-phenyl-2-pyridine-1-yl)-3-pyridinecarboxamide] | 6.30 to 7.00 | 
6 | O=C(NC1CN2CCC1CC2)c1ccc(=O)n(-c2cc(-c3ccccc3)no2)c1 (centres unmarked) [Example 9, N-(1-azabicyclo[2.2.2]octan-3-yl)-6-oxo-1-[3-phenyl-5-isoxazolyl)-3-pyridinecarboxamide] |  | < 6.00
7 | Cc1cnc(-n2cc(C(=O)NC3CN4CCC3CC4)ccc2=O)s1 (centres unmarked) [Example 10, N-(1-azabicyclo[2.2.2]octan-3-yl)-1-(5-methyl-2-thiazolyl)-6-oxo-3-pyridinecarboxamide] | 6.30 to 7.00 | 
8 | Cc1cnc(-n2cc(C(=O)N[C@H]3CN4CCC3CC4)ccc2=O)s1 [Example 11, N-[(3R)-1-azabicyclo[2.2.2]octan-3-yl]-1-(5-methyl-2-thiazolyl)-6-oxo-3-pyridinecarboxamide] |  | > 7.00
9 | Cc1cnc(-n2cc(C(=O)N[C@@H]3CN4CCC3CC4)ccc2=O)s1 [Example 12, N-[(3S)-1-azabicyclo[2.2.2]octan-3-yl]-1-(5-methyl-2-thiazolyl)-6-oxo-3-pyridinecarboxamide] | 6.00 to 6.30 | 
10 | CCc1cnc(-n2cc(C(=O)NC3CN4CCC3CC4)ccc2=O)s1 (centres unmarked) [Example 13, N-(1-azabicyclo[2.2.2]octan-3-yl)-1-(5-ethyl-2-thiazolyl)-6-oxo-3-pyridinecarboxamide] | 6.30 to 7.00 | 
11 | CCc1cnc(-n2cc(C(=O)N[C@H]3CN4CCC3CC4)ccc2=O)s1 [Example 14, N-[(3R)-1-azabicyclo[2.2.2]octan-3-yl]-1-(5-ethyl-2-thiazolyl)-6-oxo-3-pyridinecarboxamide] |  | > 7.00
12 | CCc1cnc(-n2cc(C(=O)N[C@@H]3CN4CCC3CC4)ccc2=O)s1 [Example 15, N-[(3S)-1-azabicyclo[2.2.2]octan-3-yl]-1-(5-ethyl-2-thiazolyl)-6-oxo-3-pyridinecarboxamide] | 6.30 to 7.00 | 
13 | CCCc1cnc(-n2cc(C(=O)NC3CN4CCC3CC4)ccc2=O)s1 (centres unmarked) [Example 16, N-(1-azabicyclo[2.2.2]octan-3-yl)-6-oxo-1-(5-propyl-2-thiazolyl)-3-pyridinecarboxamide] | 6.30 to 7.00 | 
14 | CC(C)c1cnc(-n2cc(C(=O)NC3CN4CCC3CC4)ccc2=O)s1 (centres unmarked) [Example 17, N-(1-azabicyclo[2.2.2]octan-3-yl)-6-oxo-1-(5-propan-2-yl-2-thiazolyl)-3-pyridinecarboxamide] | 6.30 to 7.00 | 
15 | CC(C)c1cnc(-n2cc(C(=O)N[C@H]3CN4CCC3CC4)ccc2=O)s1 [Example 18, N-[(3R)-1-azabicyclo[2.2.2]octan-3-yl)-6-oxo-1-(5-propan-2-yl-2-thiazolyl)-3-pyridinecarboxamide] |  | > 7.00
16 | CC(C)c1cnc(-n2cc(C(=O)N[C@@H]3CN4CCC3CC4)ccc2=O)s1 [Example 19, N-[(3S)-1-azabicyclo[2.2.2]octan-3-yl)-6-oxo-1-(5-propan-2-yl-2-thiazolyl)-3-pyridinecarboxamide] | 6.30 to 7.00 | 
17 | CC(C)(C)c1cnc(-n2cc(C(=O)NC3CN4CCC3CC4)ccc2=O)s1 (centres unmarked) [Example 20, N-(1-azabicyclo[2.2.2]octan-3-yl)-1-(5-tert-butyl-2-thiazolyl)-6-oxo-3-pyridinecarboxamide] | 6.30 to 7.00 | 
18 | CC(C)(C)c1cnc(-n2cc(C(=O)N[C@H]3CN4CCC3CC4)ccc2=O)s1 [Example 21, N-[(3R)-1-azabicyclo[2.2.2]octan-3-yl]-1-[5-tert-butyl-2-thiazolyl]-6-oxo-3-pyridinecarboxamide] | 6.30 to 7.00 | 
19 | CC(C)(C)c1cnc(-n2cc(C(=O)N[C@@H]3CN4CCC3CC4)ccc2=O)s1 [Example 22, N-[(3S)-1-azabicyclo[2.2.2]octan-3-yl]-1-[5-tert-butyl-2-thiazolyl]-6-oxo-3-pyridinecarboxamide] | 6.00 to 6.30 | 
20 | O=C(NC1CN2CCC1CC2)c1ccc(=O)n(-c2ncc(C3CCCC3)s2)c1 (centres unmarked) [Example 23, N-(1-azabicyclo[2.2.2]octan-3-yl)-1-(5-cyclopentyl-2-thiazolyl)-6-oxo-3-pyridinecarboxamide] | 6.30 to 7.00 | 
21 | O=C(NC1CN2CCC1CC2)c1ccc(=O)n(-c2ncc(C3CCCCC3)s2)c1 (centres unmarked) [Example 24, N-(1-azabicyclo[2.2.2]octan-3-yl)-1-(5-cyclohexyl-2-thiazolyl)-6-oxo-3-pyridinecarboxamide] | 6.30 to 7.00 | 
22 | O=C(NC1CN2CCC1CC2)c1ccc(=O)n(-c2ncc(-c3ccccc3)s2)c1 (centres unmarked) [Example 25, N-(1-azabicyclo[2.2.2]octan-3-yl)-1-(5-phenyl-2-thiazolyl)-6-oxo-3-pyridinecarboxamide] | 6.00 to 6.30 | 
23 | O=C(NC1CN2CCC1CC2)c1ccc(=O)n(-c2ncc(Cl)s2)c1 (centres unmarked) [Example 26, N-(1-azabicyclo[2.2.2]octan-3-yl)-1-(5-chloro-2-thiazolyl)-6-oxo-3-pyridinecarboxamide] |  | > 7.00
24 | O=C(N[C@H]1CN2CCC1CC2)c1ccc(=O)n(-c2ncc(Cl)s2)c1 [Example 27, N-[(3R)-1-azabicyclo[2.2.2]octan-3-yl]-1-(5-chloro-2-thiazolyl)-6-oxo-3-pyridinecarboxamide] | 6.30 to 7.00 | 
25 | O=C(N[C@@H]1CN2CCC1CC2)c1ccc(=O)n(-c2ncc(Cl)s2)c1 [Example 28, N-[(3S)-1-azabicyclo[2.2.2]octan-3-yl]-1-(5-chloro-2-thiazolyl)-6-oxo-3-pyridinecarboxamide] |  | < 6.00
26 | O=C(NC1CN2CCC1CC2)c1ccc(=O)n(-c2ncc(Cc3ccccc3)s2)c1 (centres unmarked) [Example 29] | 6.30 to 7.00 | 
27 | Cc1csc(-n2cc(C(=O)NC3CN4CCC3CC4)ccc2=O)n1 (centres unmarked) [Example 30, N-(1-azabicyclo[2.2.2]octan-3-yl)-1-(4-methyl-2-thiazolyl)-6-oxo-3-pyridinecarboxamide] |  | < 6.00
28 | O=C(NC1CN2CCC1CC2)c1ccc(=O)n(-c2nc3ccccc3s2)c1 (centres unmarked) [Example 33, N-(1-azabicyclo[2.2.2]octan-3-yl)-1-(1,3-benzothiazole-2-yl)-6-oxo-3-pyridinecarboxamide] | 6.30 to 7.00 | 
29 | Cc1nnc(-n2cc(C(=O)NC3CN4CCC3CC4)ccc2=O)s1 (centres unmarked) [Example 42, N-(1-azabicyclo[2.2.2]octan-3-yl)-1-[5-methyl-1,3,4-thiadiazole-2-yl)-6-oxo-3-pyridinecarboxamide] |  | < 6.00
